Active and inactive are the calls of the source.
Experiments:
Fatty acid synthase [1] = biological target: T1, Fatty acid synthase (Homo sapiens, UniProt P49327); experiment: inhibition of human FAS-TE enzyme activity – biochemical, kinetic fluorescence intensity, dose response (AID 624326); format: functional;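 also: rate of fluorescence rise from hydrolysis of a fluorogenic O-methyl fluorescein ester substrate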
Fatty acid synthase [2] = biological target: T1, Fatty acid synthase; experiment: inhibition of human FAS-TE enzyme activity – biochemical, endpoint fluorescence intensity, uHTS hits, dose response (AID 624327); format: functional;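 also: fluorescence from hydrolysis of an O-methyl fluorescein acyl ester substrate by the enzyme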
[3] = biological target: T2, Long-chain-fatty-acid--AMP ligase FadD28 (Mycobacterium tuberculosis, UniProt P9WQ59); experiment: Fluorescence polarization aasay to screen for inhibitors that compete for the binding of FadD28 to a bisubstrate Measured in Biochemical System Using Plate Reader - 2147-01_Inhibitor_Dose_CherryPick_Activity.; format: functional, Mycobacterium tuberculosis H37Rv
T2 sequence (P9WQ59 whole entry): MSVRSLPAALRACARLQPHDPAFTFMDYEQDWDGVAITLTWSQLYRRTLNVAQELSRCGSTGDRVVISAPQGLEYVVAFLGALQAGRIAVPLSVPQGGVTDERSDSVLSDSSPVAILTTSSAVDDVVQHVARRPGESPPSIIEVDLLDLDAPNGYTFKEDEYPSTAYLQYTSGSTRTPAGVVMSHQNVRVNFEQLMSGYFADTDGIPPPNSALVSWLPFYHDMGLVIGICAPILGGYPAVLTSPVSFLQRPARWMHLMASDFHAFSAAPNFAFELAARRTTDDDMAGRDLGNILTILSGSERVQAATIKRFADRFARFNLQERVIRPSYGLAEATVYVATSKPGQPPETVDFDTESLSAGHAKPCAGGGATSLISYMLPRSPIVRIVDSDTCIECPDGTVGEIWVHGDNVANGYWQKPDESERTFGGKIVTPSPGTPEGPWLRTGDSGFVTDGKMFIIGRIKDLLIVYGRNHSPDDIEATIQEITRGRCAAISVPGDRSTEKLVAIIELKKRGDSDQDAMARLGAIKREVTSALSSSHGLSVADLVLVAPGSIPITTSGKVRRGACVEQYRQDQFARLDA

[4] = HIV-1 AD8 envelope cell-cell fusion blockers – cherry-pick, dose response (AID 652062); format: functional, cell-based;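 also: luciferase signal from cell-cell fusion driven by HIV-1 clade B AD8 Env; potency is for inhibitors of fusion seen as a drop in luminescence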
[5] = blockers of HIV-1 envelope-mediated cell-cell fusion – cherry-pick, dose response (AID 652057); format: functional, cell-based
[6] = HEK-293T viability loss after treatment – luminescence, T-cell screen hits, cytotoxicity control for TCR NF-kB inhibitor project, dose response (AID 489026); format: functional, cell-based;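 also: cells exposed to compound about 14 hours before the viability readout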
[7] = non-specific 3'UTR reporter inhibition in Clone20-Shn3RL – cell-based, Renilla luciferase, cherry-picked, counter-screen for Shn3 inhibitor project, dose response (AID 624133); format: functional
[8] = reduction of Shn3 3'UTR-driven luciferase in osteoblasts – cell-based, Clone20 osteoblasts, firefly luciferase, cherry-picked, dose response (AID 624132); format: functional;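 also: firefly luciferase luminescence from reporter carrying the Shn3 3'UTR in osteoblasts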
[9] = loss of viability in HepG2 cells – cell-based, CellTiter-Glo, cherry-picked, cytotoxicity control for Shn3 inhibitor project, dose response (AID 624134); format: functional
Cytochrome P450 1A2 = biological target: T3, Cytochrome P450 1A2 (Homo sapiens, UniProt P05177);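 also: PubChem cytochrome P450 panel assay, CYP1A2 panel member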
T3 sequence (P05177 whole entry): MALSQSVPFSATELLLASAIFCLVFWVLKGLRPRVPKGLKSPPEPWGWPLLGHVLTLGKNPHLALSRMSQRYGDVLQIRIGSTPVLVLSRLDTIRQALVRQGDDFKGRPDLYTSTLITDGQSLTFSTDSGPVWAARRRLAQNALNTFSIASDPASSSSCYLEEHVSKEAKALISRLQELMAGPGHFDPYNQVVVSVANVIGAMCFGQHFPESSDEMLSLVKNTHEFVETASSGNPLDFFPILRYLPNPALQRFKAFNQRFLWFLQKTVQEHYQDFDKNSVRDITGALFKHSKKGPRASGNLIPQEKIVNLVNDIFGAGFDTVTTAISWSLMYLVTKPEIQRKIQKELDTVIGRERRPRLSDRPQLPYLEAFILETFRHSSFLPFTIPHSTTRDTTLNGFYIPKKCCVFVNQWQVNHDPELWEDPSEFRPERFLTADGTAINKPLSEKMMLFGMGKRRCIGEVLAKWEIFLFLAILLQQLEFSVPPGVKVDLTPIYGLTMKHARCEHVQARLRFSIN

INS1 = experiment: INS-1E survival protection against cytokine death – cell-based, luminescence, retest, dose response (AID 449756); format: functional; details: Rattus norvegicus;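 also: cell death triggered by IL-1 beta plus TNF-alpha plus IFN-gamma mixture; protective hits raise ATP signal compared with cytokine alone wells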
[10] = biological target: T4, Histone-lysine N-methyltransferase NSD2 (Homo sapiens, UniProt O96028); format: biochemical
T4 sequence (O96028 whole entry): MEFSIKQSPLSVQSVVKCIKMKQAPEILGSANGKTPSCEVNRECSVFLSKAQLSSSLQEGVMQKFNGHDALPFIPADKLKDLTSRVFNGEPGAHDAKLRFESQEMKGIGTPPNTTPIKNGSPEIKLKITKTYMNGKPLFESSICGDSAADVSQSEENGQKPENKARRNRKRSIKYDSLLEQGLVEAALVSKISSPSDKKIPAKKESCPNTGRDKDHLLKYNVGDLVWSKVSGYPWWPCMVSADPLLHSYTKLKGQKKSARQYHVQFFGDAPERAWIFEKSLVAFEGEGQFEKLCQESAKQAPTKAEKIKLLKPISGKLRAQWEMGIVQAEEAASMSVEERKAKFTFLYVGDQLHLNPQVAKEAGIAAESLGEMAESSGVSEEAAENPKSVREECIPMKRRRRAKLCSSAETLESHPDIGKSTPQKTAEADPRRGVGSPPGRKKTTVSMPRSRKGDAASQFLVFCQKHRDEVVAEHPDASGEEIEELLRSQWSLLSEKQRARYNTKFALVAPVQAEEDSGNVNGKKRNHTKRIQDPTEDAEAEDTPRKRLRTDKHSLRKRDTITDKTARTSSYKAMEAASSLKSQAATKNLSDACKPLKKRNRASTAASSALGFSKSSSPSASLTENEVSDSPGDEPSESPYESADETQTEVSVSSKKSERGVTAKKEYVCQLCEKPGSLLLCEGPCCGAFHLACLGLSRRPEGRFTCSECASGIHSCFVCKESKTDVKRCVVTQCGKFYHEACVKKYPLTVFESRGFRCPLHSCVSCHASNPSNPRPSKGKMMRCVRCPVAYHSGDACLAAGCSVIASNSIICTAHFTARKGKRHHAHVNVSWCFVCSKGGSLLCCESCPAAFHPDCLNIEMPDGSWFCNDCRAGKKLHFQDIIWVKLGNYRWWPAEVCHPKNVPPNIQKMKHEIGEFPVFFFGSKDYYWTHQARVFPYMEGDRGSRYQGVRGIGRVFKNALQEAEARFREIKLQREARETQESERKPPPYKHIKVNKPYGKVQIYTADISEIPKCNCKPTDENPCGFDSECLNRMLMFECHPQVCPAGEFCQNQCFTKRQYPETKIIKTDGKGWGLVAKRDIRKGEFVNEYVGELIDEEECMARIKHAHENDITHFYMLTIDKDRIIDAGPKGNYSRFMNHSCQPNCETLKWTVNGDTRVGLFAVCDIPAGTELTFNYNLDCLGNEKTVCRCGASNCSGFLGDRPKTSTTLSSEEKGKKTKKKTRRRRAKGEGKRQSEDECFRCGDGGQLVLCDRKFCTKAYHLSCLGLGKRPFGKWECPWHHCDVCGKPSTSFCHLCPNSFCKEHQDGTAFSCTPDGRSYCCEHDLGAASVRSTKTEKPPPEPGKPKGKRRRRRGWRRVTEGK

P388 = experiment: cells; format: functional; details: Mus musculus
P388/ADR = experiment: cells; format: functional; details: Mus musculus
SN12K1 = experiment: cells; format: functional; details: Homo sapiens
[11] = NIH3T3 cell viability loss – ATP luminescence, mouse fibroblasts, counter-screen, dose response (AID 2010); format: functional, cell-based;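 also: cells exposed to compound for about 90 hours before reading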
[12] = Trypanosoma cruzi growth suppression in host cells – NIH3T3 host cells, beta-gal luminescence, confirmation (AID 2044); format: functional, cell-based;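 also: intracellular parasites grown in NIH/3T3 mouse fibroblasts as host cells; luminescent beta-galactosidase reporter signal from transgenic T. cruzi replicating inside host cells; inhibitors lower the luminescence signal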

T1 sequence (P49327 whole entry): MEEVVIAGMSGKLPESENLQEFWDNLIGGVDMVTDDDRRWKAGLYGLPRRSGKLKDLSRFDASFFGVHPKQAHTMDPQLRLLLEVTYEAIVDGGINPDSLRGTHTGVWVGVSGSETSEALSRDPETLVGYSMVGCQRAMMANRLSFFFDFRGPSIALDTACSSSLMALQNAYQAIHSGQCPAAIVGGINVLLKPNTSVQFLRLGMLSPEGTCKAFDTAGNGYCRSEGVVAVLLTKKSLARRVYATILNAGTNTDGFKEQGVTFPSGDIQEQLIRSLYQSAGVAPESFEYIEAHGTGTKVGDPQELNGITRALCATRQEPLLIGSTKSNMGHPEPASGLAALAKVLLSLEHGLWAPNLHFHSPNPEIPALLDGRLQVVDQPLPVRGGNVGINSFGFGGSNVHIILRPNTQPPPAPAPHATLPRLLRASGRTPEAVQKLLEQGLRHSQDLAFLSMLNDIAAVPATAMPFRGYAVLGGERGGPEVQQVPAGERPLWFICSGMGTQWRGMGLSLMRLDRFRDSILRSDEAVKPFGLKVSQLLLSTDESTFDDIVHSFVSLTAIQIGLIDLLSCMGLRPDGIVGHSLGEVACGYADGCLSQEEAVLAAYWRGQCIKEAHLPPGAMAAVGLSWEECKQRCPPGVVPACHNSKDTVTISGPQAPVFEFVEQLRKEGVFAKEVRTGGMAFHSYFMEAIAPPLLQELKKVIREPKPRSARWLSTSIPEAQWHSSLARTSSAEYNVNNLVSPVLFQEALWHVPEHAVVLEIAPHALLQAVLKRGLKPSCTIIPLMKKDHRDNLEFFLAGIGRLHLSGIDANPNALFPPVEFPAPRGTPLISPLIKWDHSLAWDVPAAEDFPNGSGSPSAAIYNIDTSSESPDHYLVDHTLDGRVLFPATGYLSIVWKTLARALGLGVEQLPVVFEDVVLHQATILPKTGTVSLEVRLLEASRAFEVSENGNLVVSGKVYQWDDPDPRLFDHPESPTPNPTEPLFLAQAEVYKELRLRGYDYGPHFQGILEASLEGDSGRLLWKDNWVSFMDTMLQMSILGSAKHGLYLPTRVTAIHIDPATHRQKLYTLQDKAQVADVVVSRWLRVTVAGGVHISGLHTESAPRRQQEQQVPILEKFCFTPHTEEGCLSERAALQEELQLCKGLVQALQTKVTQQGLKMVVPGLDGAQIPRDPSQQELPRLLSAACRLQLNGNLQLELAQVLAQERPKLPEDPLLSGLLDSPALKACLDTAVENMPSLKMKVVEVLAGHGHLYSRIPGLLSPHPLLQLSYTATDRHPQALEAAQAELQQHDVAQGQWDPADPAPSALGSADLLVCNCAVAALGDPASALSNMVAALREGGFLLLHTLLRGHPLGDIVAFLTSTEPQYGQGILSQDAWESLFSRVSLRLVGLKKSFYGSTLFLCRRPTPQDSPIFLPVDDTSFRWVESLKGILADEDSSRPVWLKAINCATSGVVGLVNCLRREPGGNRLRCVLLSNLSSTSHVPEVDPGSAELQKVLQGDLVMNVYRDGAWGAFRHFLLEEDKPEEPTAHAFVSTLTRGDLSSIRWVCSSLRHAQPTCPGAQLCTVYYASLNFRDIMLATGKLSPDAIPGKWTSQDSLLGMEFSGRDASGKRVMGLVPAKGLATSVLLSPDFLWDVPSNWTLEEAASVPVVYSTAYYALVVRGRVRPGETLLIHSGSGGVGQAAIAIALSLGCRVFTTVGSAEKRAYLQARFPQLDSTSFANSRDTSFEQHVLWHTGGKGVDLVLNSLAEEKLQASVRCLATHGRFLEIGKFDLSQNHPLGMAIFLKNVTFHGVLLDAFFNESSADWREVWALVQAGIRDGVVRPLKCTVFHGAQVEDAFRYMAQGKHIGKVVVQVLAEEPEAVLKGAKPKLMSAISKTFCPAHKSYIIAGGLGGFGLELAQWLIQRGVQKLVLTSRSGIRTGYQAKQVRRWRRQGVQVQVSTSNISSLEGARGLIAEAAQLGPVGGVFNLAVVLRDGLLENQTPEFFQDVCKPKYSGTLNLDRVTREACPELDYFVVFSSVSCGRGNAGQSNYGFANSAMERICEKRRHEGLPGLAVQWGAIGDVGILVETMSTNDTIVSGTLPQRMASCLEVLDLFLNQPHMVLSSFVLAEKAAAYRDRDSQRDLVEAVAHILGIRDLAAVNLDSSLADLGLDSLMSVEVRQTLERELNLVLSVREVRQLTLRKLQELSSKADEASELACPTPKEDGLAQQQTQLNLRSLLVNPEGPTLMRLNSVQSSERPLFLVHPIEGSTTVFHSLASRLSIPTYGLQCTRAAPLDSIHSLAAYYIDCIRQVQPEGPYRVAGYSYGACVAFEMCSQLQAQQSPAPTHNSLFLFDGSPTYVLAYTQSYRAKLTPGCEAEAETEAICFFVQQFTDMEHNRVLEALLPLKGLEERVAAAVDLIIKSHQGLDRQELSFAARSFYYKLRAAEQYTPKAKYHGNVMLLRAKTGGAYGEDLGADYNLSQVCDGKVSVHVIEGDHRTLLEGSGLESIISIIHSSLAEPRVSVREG

Compound: CCOC(=O)C1CCCN(c2nc3c(C)cccn3c(=O)c2/C=C(\C#N)C(=O)NCc2ccco2)C1 (stereo unspecified)
- IC50 (Fatty acid synthase [1]): 8.23 µM (active)
- IC50 (Fatty acid synthase [2]): 16.2 µM (active)

Compound: Cc1cccc(OCC(=O)N/N=C/c2cc([N+](=O)[O-])ccc2N2CCOCC2)c1
- IC50 (Fatty acid synthase [1]): 8.84 µM (active)
- IC50 (Fatty acid synthase [2]): 9.22 µM (active)

Compound: COc1ccc(C(=O)Cn2c(=O)oc3ccc(C)cc32)cc1
- AC50 [3]: 36.7 µM (active)

Compound: C[C@H](CO)N1C[C@H](C)[C@@H](CN(C)C(=O)Nc2cccc(C(F)(F)F)c2)OCc2ccccc2-c2ccccc2C1=O
- AC50 [4]: 0.346 µM (active)
- AC50 [5]: < 0.285 µM (active)

Compound: COc1ccc(CCNc2cc(N3CCN(C(=O)c4ccccc4F)CC3)ccc2[N+](=O)[O-])cc1OC
- IC50 [6]: > 80 µM (inactive)
- AC50 [7]: 0.811 µM (active)
- AC50 [8]: 1.26 µM (active)
- AC50 [9]: 0.845 µM (active)

Compound: CCOC(=O)N/N=C/c1c(C)nn(-c2cccc(C(F)(F)F)c2)c1Cl
- IC50 [6]: 69.6 µM (inactive)

Compound: CC(C)Cn1c(N)c(C(=O)CSc2ccc3c(c2)OCCO3)c(=O)n(C)c1=O
- AC50 (Cytochrome P450 1A2): 31.6 µM (inconclusive)
- IC50 [6]: > 80 µM (inactive)
- AC50 (INS1): 2.98 µM (active)
- AC50 [7]: 1.57 µM (active)
- AC50 [8]: 0.674 µM (active)
- AC50 [9]: 1.74 µM (active)

Compound: O=C(NCc1ccc2c(c1)OCO2)c1ccc(C2SCC(=O)N2Cc2ccco2)cc1 (stereo unspecified)
- IC50 (Fatty acid synthase [1]): 5.95 µM (active)
- IC50 (Fatty acid synthase [2]): 8.5 µM (active)

Compound: CCN(CC)CCCN(Cc1cc2cc3c(cc2nc1O)OCO3)C(S)=NCCCOC
- AC50 [10]: > 20 µM (inactive)

Compound: COc1ccc2[nH]c3c(c2c1)CCN1C(=O)C(CC(=O)NC(C)(C)C)C[C@H](C(=O)N2CCOCC2)[C@@]31CCC1CCCC1 (stereo partly specified)
- IC50 (Fatty acid synthase [1]): 7.48 µM (active)
- IC50 (Fatty acid synthase [2]): 8.32 µM (active)

Compound: C=C1C(C)C2C(Cc3ccccc3)NC(=O)C23OC(=O)/C=C\CC(=O)CCC(C)C/C=C/C3C1O (stereo unspecified)
- GI50 (P388): 0.0552 µM (active)
- GI50 (P388/ADR): 0.224 µM (active)
- GI50 (SN12K1): 0.444 µM (active)

Compound: Cc1c(Cl)c([N+](=O)[O-])nn1CCCC(=O)N(Cc1ccccc1)Cc1ccccc1
- IC50 (Fatty acid synthase [1]): 11 µM (active)
- IC50 (Fatty acid synthase [2]): 10 µM (active)
- EC50 [11]: 29.7 µM (active)
- EC50 [12]: 1.86 µM (active)

Compound: COc1ccccc1/N=C(\C)C1=C(O)CC(c2ccccc2)CC1=O (stereo unspecified)
- IC50 [6]: > 80 µM (inactive)

Reference: ChEMBL document CHEMBL1201862, “PubChem BioAssay data set” (2004)
